Experimental data: patent US20230257396A1, “MACROCYCLES AND THEIR USE” (BLOSSOMHILL THERAPEUTICS, INC., priority 2020, published 2023)

Tests used:
Test in all cases: KINOMEscan kinase binding assay (Eurofins/DiscoveRx), % Ctrl
Details in all cases: 1 μM
kinases [1] = target: T1, kinases (Homo sapiens, UniProt P00519, Q252H)
T1 construct: purchased Eurofins/DiscoveRx; host or cells: E. coli BL21-derived host (T7 phage display) for most kinases; HEK-293 for the rest
Outline: (§1)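 Read-out is qPCR of kinase eluted from ligand-coated streptavidin beads after 1 h room-temperature competition with test compound. Values are % Ctrl at the tested concentration, lower meaning tighter binding.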

kinases [2] = target: T2, kinases (Homo sapiens, UniProt P07949)
T2 construct: purchased Eurofins/DiscoveRx; host or cells: E. coli BL21-derived host (T7 phage display) for most kinases; HEK-293 for the rest
Outline: as §1

kinases [3] = target: T3, kinases (Homo sapiens, UniProt P00519)
T3 construct: purchased Eurofins/DiscoveRx; host or cells: E. coli BL21-derived host (T7 phage display) for most kinases; HEK-293 for the rest
Outline: as §1

kinases [4] = target: T4, kinases (Homo sapiens, UniProt P36888, D835V)
T4 construct: purchased Eurofins/DiscoveRx; host or cells: E. coli BL21-derived host (T7 phage display) for most kinases; HEK-293 for the rest
T4 sequence (P36888 27-993 D835V): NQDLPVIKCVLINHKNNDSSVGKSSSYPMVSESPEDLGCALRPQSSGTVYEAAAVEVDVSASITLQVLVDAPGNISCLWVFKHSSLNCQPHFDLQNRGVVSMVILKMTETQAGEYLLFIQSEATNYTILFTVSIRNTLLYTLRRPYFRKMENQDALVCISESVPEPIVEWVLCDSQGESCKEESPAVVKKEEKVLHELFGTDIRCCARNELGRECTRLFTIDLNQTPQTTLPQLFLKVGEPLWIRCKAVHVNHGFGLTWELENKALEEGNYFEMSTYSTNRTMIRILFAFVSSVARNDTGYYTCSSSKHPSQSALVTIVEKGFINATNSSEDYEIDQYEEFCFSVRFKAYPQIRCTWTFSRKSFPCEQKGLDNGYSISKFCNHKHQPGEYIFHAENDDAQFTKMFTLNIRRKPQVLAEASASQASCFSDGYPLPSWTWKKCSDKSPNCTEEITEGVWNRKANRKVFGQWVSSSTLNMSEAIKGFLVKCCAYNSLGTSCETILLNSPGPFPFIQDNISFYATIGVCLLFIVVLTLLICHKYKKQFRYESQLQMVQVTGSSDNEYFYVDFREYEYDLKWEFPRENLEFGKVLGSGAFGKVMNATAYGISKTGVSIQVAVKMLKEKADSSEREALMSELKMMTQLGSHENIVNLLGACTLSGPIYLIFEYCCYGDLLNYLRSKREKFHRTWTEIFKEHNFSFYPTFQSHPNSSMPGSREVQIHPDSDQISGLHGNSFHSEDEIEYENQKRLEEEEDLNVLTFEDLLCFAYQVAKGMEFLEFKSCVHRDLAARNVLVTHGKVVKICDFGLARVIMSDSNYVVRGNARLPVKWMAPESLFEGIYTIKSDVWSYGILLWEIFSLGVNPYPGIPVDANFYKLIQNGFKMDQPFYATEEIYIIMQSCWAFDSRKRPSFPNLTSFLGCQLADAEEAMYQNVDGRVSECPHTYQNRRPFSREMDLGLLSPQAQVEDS
Outline: as §1

kinases [5] = target: T5, kinases (Homo sapiens, UniProt P00533, G719C)
T5 construct: purchased Eurofins/DiscoveRx; host or cells: E. coli BL21-derived host (T7 phage display) for most kinases; HEK-293 for the rest
Outline: as §1

kinases [6] = target: T6, kinases (Homo sapiens, UniProt P00533, L858R/T790M)
T6 construct: purchased Eurofins/DiscoveRx; host or cells: E. coli BL21-derived host (T7 phage display) for most kinases; HEK-293 for the rest
Outline: as §1

kinases [7] = target: T7, kinases (Homo sapiens, UniProt P10721, V559D/V654A)
T7 construct: purchased Eurofins/DiscoveRx; host or cells: E. coli BL21-derived host (T7 phage display) for most kinases; HEK-293 for the rest
Outline: as §1

kinases [8] = target: T8, kinases (Homo sapiens, UniProt P10721, D816V)
T8 construct: purchased Eurofins/DiscoveRx; host or cells: E. coli BL21-derived host (T7 phage display) for most kinases; HEK-293 for the rest
Outline: as §1

kinases [9] = target: T9, kinases (Homo sapiens, UniProt P00519, F317I)
T9 construct: purchased Eurofins/DiscoveRx; host or cells: E. coli BL21-derived host (T7 phage display) for most kinases; HEK-293 for the rest
Outline: as §1

kinases [10] = target: T10, kinases (Homo sapiens, UniProt P00533, L858R)
T10 construct: purchased Eurofins/DiscoveRx; host or cells: E. coli BL21-derived host (T7 phage display) for most kinases; HEK-293 for the rest
Outline: as §1

kinases [11] = target: T11, kinases (Homo sapiens, UniProt P00533, DEL746-750)
T11 construct: purchased Eurofins/DiscoveRx; host or cells: E. coli BL21-derived host (T7 phage display) for most kinases; HEK-293 for the rest
Outline: as §1

[12] = target ABL1(Q252H)-nonphosphorylated
[13] = target ABL1(Q252H)-phosphorylated
[14] = target ABL1(F317I)-nonphosphorylated
[15] = target ABL1(F317I)-phosphorylated

T2 sequence (P07949 29-1114): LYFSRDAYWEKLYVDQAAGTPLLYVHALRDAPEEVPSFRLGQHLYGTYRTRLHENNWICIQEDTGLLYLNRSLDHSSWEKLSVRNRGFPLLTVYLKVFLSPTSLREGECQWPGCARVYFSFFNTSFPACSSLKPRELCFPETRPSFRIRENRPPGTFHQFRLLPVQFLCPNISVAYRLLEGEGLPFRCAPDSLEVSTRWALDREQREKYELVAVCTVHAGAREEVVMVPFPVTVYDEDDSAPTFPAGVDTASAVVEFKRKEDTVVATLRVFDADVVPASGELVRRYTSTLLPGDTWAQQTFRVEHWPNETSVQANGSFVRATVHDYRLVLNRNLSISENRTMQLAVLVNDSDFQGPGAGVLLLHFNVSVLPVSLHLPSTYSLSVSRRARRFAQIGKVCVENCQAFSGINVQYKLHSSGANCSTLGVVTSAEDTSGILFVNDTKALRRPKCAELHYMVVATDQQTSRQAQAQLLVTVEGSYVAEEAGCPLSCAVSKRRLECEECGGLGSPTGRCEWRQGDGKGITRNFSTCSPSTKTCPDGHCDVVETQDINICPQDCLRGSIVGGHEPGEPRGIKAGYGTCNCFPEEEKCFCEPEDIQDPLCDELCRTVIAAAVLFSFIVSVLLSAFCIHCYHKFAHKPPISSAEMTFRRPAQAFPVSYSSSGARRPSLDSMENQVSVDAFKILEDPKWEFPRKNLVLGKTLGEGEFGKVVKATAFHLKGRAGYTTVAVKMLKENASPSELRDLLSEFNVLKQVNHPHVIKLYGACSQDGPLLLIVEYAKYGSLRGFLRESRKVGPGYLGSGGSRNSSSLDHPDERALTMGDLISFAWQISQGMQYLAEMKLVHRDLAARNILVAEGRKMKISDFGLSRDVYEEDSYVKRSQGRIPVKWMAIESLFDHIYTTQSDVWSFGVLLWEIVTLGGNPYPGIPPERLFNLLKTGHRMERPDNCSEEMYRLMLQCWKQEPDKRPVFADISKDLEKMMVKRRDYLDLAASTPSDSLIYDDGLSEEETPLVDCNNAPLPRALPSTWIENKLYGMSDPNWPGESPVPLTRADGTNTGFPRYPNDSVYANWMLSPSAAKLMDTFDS
T8 sequence (P10721 26-976 D816V): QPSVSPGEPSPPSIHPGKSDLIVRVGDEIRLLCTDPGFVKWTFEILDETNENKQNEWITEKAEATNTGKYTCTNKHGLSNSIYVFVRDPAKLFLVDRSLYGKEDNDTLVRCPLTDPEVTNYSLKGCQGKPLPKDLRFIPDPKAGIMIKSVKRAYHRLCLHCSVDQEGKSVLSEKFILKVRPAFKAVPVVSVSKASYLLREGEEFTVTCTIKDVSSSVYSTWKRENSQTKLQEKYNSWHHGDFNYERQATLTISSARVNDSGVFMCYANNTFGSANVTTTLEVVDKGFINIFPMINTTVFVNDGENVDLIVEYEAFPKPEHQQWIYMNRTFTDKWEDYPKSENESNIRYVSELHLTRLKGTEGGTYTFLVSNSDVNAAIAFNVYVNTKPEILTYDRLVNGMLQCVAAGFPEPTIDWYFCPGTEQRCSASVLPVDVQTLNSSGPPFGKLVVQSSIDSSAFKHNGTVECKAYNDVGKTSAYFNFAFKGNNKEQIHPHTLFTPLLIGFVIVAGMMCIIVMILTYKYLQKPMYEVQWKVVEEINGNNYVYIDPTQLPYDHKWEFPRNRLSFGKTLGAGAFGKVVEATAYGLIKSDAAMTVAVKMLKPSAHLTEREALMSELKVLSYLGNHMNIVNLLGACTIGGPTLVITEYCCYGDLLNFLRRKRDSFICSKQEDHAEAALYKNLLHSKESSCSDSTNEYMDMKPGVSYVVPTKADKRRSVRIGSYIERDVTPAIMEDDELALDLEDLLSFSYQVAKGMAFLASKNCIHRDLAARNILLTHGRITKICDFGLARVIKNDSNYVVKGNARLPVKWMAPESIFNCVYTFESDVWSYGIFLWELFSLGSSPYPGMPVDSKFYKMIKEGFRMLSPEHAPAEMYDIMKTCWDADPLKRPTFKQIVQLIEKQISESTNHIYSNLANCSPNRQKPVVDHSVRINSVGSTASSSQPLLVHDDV
T7 sequence (P10721 26-976 V559D/V654A): as the sequence (P10721 26-976 D816V) above, with V534D, V629A, V791D counted along it

Row | % Ctrl, ABL1(Q252H)-nonphosphorylated (kinases [1]; [12]) [% Ctrl] | % Ctrl, ABL1(Q252H)-phosphorylated (kinases [1]; [13]) [% Ctrl] | % Ctrl, RET (kinases [2]; target RET) [% Ctrl] | % Ctrl, ABL1-nonphosphorylated (kinases [3]; target ABL1-nonphosphorylated) [% Ctrl] | % Ctrl, ABL1-phosphorylated (kinases [3]; target ABL1-phosphorylated) [% Ctrl] | % Ctrl, FLT3(D835V) (kinases [4]; target FLT3(D835V)) [% Ctrl] | % Ctrl, EGFR(G719C) (kinases [5]; target EGFR(G719C)) [% Ctrl] | % Ctrl, EGFR(L858R, T790M) (kinases [6]; target EGFR(L858R, T790M)) [% Ctrl] | % Ctrl, KIT(V559D, V654A) (kinases [7]; target KIT(V559D, V654A)) [% Ctrl] | % Ctrl, KIT(D816V) (kinases [8]; target KIT(D816V)) [% Ctrl] | % Ctrl, ABL1(F317I)-nonphosphorylated (kinases [9]; [14]) [% Ctrl] | % Ctrl, ABL1(F317I)-phosphorylated (kinases [9]; [15]) [% Ctrl] | % Ctrl, EGFR(L858R) (kinases [10]; target EGFR(L858R)) [% Ctrl] | % Ctrl, EGFR(E746-A750del) (kinases [11]; target EGFR(E746-A750del)) [% Ctrl] | Compound | other results
1 | 7.8 | 5.1 | 42 | 17 | 9.8 | 0.9 | 82 | 17 | 75 | 63 | 72 | 60 | 80 | 72 | Cc1cc2c([nH]1)/C=C1\C(=O)Nc3ccc(cc31)-c1c(noc1C)CNCCN(C)C2=O [Ex. 139, [3a(4)Z]-6,9,16-trimethyl-10,11,12,13-tetrahydro-2H-1,17-(ethanediylidene)[1,2]oxazolo[4,3-m]dipyrrolo[3,2-f:3′,4′-i][1,4]diazacyclopentadecine-3,8(5H,9H)-dione] | 
2 |  |  |  |  |  |  |  |  |  |  |  |  |  |  | Cc1cc2c([nH]1)/C=C1\C(=O)Nc3ccc(cc31)-c1ccnn1CCOCCNC2=O [Ex.39, [19a(20)Z]-2-methyl-6,7,9,10-tetrahydro-1H-15,17-(ethanediylidene)pyrazolo[1,5-d]dipyrrolo[3,4-h:2′,3′-k][1,4,14]oxadiazacyclohexadecine-4,19(5H,18H)-dione] | % Ctrl, ABL1(Q252H)-nonphosphorylated (kinases [1]; ABL1(Q252H)-nonphosphorylated): 84 % Ctrl; % Ctrl, ABL1(Q252H)-phosphorylated (kinases [1]; ABL1(Q252H)-phosphorylated): 93 % Ctrl; % Ctrl, RET (kinases [2]; RET): 85 % Ctrl; % Ctrl, ABL1-nonphosphorylated (kinases [3]; ABL1-nonphosphorylated): 73 % Ctrl; % Ctrl, ABL1-phosphorylated (kinases [3]; ABL1-phosphorylated): 78 % Ctrl; % Ctrl, FLT3(D835V) (kinases [4]; FLT3(D835V)): 35 % Ctrl; % Ctrl, EGFR(G719C) (kinases [5]; EGFR(G719C)): 70 % Ctrl; % Ctrl, EGFR(L858R, T790M) (kinases [6]; EGFR(L858R, T790M)): 90 % Ctrl; % Ctrl, KIT(V559D, V654A) (kinases [7]; KIT(V559D, V654A)): 91 % Ctrl; % Ctrl, KIT(D816V) (kinases [8]; KIT(D816V)): 91 % Ctrl; % Ctrl, ABL1(F317I)-nonphosphorylated (kinases [9]; ABL1(F317I)-nonphosphorylated): 100 % Ctrl; % Ctrl, ABL1(F317I)-phosphorylated (kinases [9]; ABL1(F317I)-phosphorylated): 64 % Ctrl; % Ctrl, EGFR(L858R) (kinases [10]; EGFR(L858R)): 64 % Ctrl; % Ctrl, EGFR(E746-A750del) (kinases [11]; EGFR(E746-A750del)): 69 % Ctrl
3 | 74 | 93 | 45 | 64 | 100 | 0.2 | 89 | 43 | 97 | 80 | 100 | 100 | 88 | 73 | Cc1cc2c([nH]1)/C=C1\C(=O)Nc3ccc(cc31)-c1c(C)nn(C)c1COCCN(C)C2=O [Ex. 146, [3a(4)Z]-6,9,14,16-tetramethyl-10,11,13,14-tetrahydro-2H-1,17-(ethanediylidene)pyrazolo[4,3-m]dipyrrolo[3,2-f:3′,4′-i][1,4]oxazacyclopentadecine-3,8(5H,9H)-dione] | 
